Values after ≈ are worked out from the molar mass of the structure shown. Counter-ions that a name gives are not always drawn. Like-named read-outs stand apart in the source and are kept apart here.
Legend:
[1] = system: Escherichia coli No. 29; assay: therapeutic treatment of bacterial infection in mice, ED50; type: in vivo; details: male ICR mice; E. coli No. 29 intraperitoneally, 2.0×10^7 cells per mouse; subcutaneous injection 30 minutes after inoculation
Experimental: Thirty minutes after the inoculation, the mice were each treated by subcutaneous injection of 0.2 ml of a solution of the test compound in physiological saline. In this way, the ED50 value of the test compounds was determined. Cefoxitin and the 6059-S Compound (di-Na salt) were also tested in the same manner as above, for the comparison purpose.

[2] = system: Shigella dysenteriae Shigae; assay: microbe, parasite or virus in culture; type: cell-based; details: 20 h
[3] = system: Pro. morganii 1510; assay: antibacterial spectrum, MIC (Table 2); type: cell-based; details: Morganella morganii, nutrient agar, 37° C., 20 hours
[4] = system: E. coli W 3630 RGN 823; assay: microbe, parasite or virus in culture; type: cell-based; details: Escherichia coli, W3630RGN823, 20 h
[5] = system: Kleb. pneumoniae GN 69; assay: antibacterial spectrum, MIC (Table 2); type: cell-based; details: Klebsiella pneumoniae, GN69, nutrient agar, 37° C., 20 hours
[6] = system: B. subtilis ATCC 6633; assay: antibacterial spectrum, MIC (Table 2); type: cell-based; details: Bacillus subtilis, ATCC6633, nutrient agar, 37° C., 20 hours
[7] = system: E. coli ML 1410; assay: antibacterial spectrum, MIC (Table 2); type: cell-based; details: Escherichia coli, ML1410, nutrient agar, 37° C., 20 hours
[8] = system: E. coli W 3630 RGN 238; assay: microbe, parasite or virus in culture; type: cell-based; details: Escherichia coli, W3630RGN238, 20 h
[9] = system: Sta. aureus Smith (I); assay: antibacterial spectrum, MIC (Table 2); type: cell-based; details: Staphylococcus aureus, nutrient agar, 37° C., 20 hours
[10] = system: Sta. aureus 209P JC-1; assay: antibacterial spectrum, MIC (Table 2); type: cell-based; details: Staphylococcus aureus, nutrient agar, 37° C., 20 hours
[11] = system: Escherichia coli GN; assay: Minimum Inhibitory Concentration "in vitro" (Table 1); type: cell-based
[12] = system: Pro. vulgaris GN 76; assay: antibacterial spectrum, MIC (Table 2); type: cell-based; details: Proteus vulgaris, GN76, nutrient agar, 37° C., 20 hours
[13] = system: Citro freundii GN 346/16; assay: antibacterial spectrum, MIC (Table 2); type: cell-based; details: nutrient agar, 37° C., 20 hours
[14] = system: Ps. cepacia M-0527; assay: antibacterial spectrum, MIC (Table 2); type: cell-based; details: Burkholderia cepacia, M0527, nutrient agar, 37° C., 20 hours
[15] = system: Sal. typhimurium LT-2; assay: antibacterial spectrum, MIC (Table 2); type: cell-based; details: Salmonella enterica, nutrient agar, 37° C., 20 hours
[16] = system: Escherichia coli No. 29; assay: Minimum Inhibitory Concentration "in vitro" (Table 1); type: cell-based
[17] = system: Ps. aeruginosa MB-3829; assay: antibacterial spectrum, MIC (Table 2); type: cell-based; details: Pseudomonas aeruginosa
[18] = system: Pro. mirabilis GN 79; assay: antibacterial spectrum, MIC (Table 2); type: cell-based; details: Proteus mirabilis, GN79, nutrient agar, 37° C., 20 hours

Compound	ED50 value [1] [mg/mouse]	MIC [2] [µg/mL]	MIC [3] [µg/mL]	MIC [4] [µg/mL]	MIC [5] [µg/mL]	MIC [6] [µg/mL]	MIC [7] [µg/mL]	MIC [8] [µg/mL]	MIC [9] [µg/mL]	MIC [10] [µg/mL]	MIC [11] [µg/mL]	MIC [12] [µg/mL]	MIC [13] [µg/mL]	MIC [14] [µg/mL]	MIC [15] [µg/mL]	MIC [16] [µg/mL]	MIC ([17]; MB3829, Ps. aeruginosa MB-3829, nutrient agar, 37° C., 20 hours, read-out: MIC) [µg/mL]	MIC [18] [µg/mL]	MIC ([17]; MB3829, 20 h) [µg/mL]
CO[C@@]1(NC(=O)Cc2cccs2)C(=O)N2C(C(=O)O)=C(COC(N)=O)CS[C@@H]21 [Cefoxitin, reference compound]	0.50	–	–	–	–	–	–	–	–	–	–	–	–	–	–	–	–	–	–
CO[C@@]1(NC(=O)CSC[C@@H](N)C(=O)O)C(=O)N2C(C(=O)O)=C(CSc3nnnn3C)CO[C@@H]21 [Example 1, 7β-[(2D-2-amino-2-carboxy)ethylthioacetoamido]-7α-methoxy-3-[(1-methyl-1H-tetrazol-5-yl)thiomethyl]-1-oxadethia-3-cephem-4-carboxylic acid sodium salt]	0.03	0.2	0.78	≤ 0.025	0.78	1.56	0.39	0.39	1.56	3.13	0.39	0.39	0.78	3.13	0.39	0.39	12.5	0.2	–
CO[C@@]1(NC(=O)C(C(=O)O)c2ccc(O)cc2)C(=O)N2C(C(=O)O)=C(CSc3nnnn3C)CO[C@@H]21 (stereo partly drawn) [6059-S Compound, 7β-(α-p-hydroxyphenyl-α-carboxyacetoamido)-7α-methoxy-3-[(1-methyl-1H-tetrazole-5-yl)thiomethyl]-1-oxadethia-3-cephem-4-carboxylic acid, reference compound]	0.16	0.1 (≈ 0.192 µM)	0.39 (≈ 0.749 µM)	0.05 (≈ 0.0961 µM)	0.39 (≈ 0.749 µM)	25 (≈ 48 µM)	0.1 (≈ 0.192 µM)	0.2 (≈ 0.384 µM)	6.25 (≈ 12 µM)	6.25 (≈ 12 µM)	–	0.39 (≈ 0.749 µM)	0.1 (≈ 0.192 µM)	6.25 (≈ 12 µM)	0.2 (≈ 0.384 µM)	–	–	0.39 (≈ 0.749 µM)	3.13 (≈ 6.01 µM)
Cn1nnnc1SCC1=C(C(=O)O)N2C(=O)[C@@H](NC(=O)CSC[C@@H](N)C(=O)O)[C@H]2OC1 [Example 2, 7β-[(2D-2-Amino-2-carboxy)ethylthioacetoamido]-3-[(1-methyl-1H-tetrazol-5-yl)thiomethyl]-1-oxadethia-3-cephem-4-carboxylic acid sodium salt]	0.05	–	–	–	–	–	–	–	–	–	3.13	–	–	–	–	0.39	–	–	–
CO[C@@]1(NC(=O)CSC[C@@H](N)C(=O)O)C(=O)N2C(C(=O)[O-])=C(C[n+]3ccc(C(N)=O)cc3)CO[C@@H]21 [Example 3, 7β-[(2D-2-Amino-2-carboxy)ethylthioacetoamido]-7α-methoxy-3-[(4-carbamoylpyridinium)methyl]-1-oxadethia-3-cephem-4-carboxylic acid]	–	–	–	–	–	–	–	–	–	–	0.78 (≈ 1.53 µM)	–	–	–	–	0.78 (≈ 1.53 µM)	–	–	–
